Values after ≈ are worked out from the molar mass of the structure shown.
How the values were obtained:
[1] = 0.1 N HCl aqueous solution (pH around 1); cited from earlier work
[2] = Precipitation after preparation of liquid lenalidomide compositions; format: physicochemical; settings: a few minutes after lenalidomide was dissolved in an aqueous buffer at pH between 1.0 and 3.5
Method: A composition was prepared according to example 23 of WO 1998/03502. The solution contained 5.0 g lenalidomide, 22.5 g sodium chloride, 300.0 g phosphate buffer with pH 7.4 and demineralized water. The pH of the final composition was 7.4.
Similar results (i.e. precipitation) were obtained a few minutes after lenalidomide was dissolved in an aqueous buffer at pH between 1.0 and 3.5.
Thus, the composition of Trial 0 was not subjected to the stability study.
The composition of trial 4 was not subjected to the stability study.

## Nc1cccc2c1CN(C1CCC(=O)NC1=O)C2=O (racemic) [Lenalidomide, 1-oxo-(2,6-dioxopiperidin-3-yl)-4-aminoisoindoline]
[1]
  solubility: 18.0 mg/mL (≈ 69.4 mM)
[2]
  precipitation after dissolution: precipitation

From patent US20250073220A1, “ORAL SOLUTION COMPRISING LENALIDOMIDE” (A FINE HOUSE S.A., priority 2021, published 2025)
